Results taken from PubChem BioAssay AID2060493 (Molecular Pharmacology Branch, DTP, NCI, 2025).

Tested on: 616215-338-R-J1-PDC tumor spheroids, viability
Experiment: Anticancer human tumor 616215-338-R-J1-PDC patient-derived colon adenocarcinoma cell line growth inhibition [GQUAD]
Details: spheroids with HUVEC and MSC; for IC50: curve of first compound; for viability, T/C: stronger effect = lower value
From the text: DNA G-quadruplex Stabilizer Agents in Combinations in Complex Spheroids
A high-throughput screen of multi-cell type tumor spheroids was designed to identify active combinations of DNA G-quadruplex stabilizer agents and targeted small molecules. Complex spheroids include a stromal component modeled by human endothelial cells (HUVEC) and fibroblasts modeled by human mesenchymal stem cells (MSCs). The concentration ranges selected for each drug and investigational agent were based upon clinically achievable concentrations if the clinical Cmax of the agent was known.
Compounds. The drugs and investigational agents: pidnarulex (CX-5461; NSC782164), APTO-253 (NSC789042), BRACO-19 (NSC847499), peposertib (NSC802822), ceralasertib (NSC780249), elimusertib (NSC800525), camonsertib (NSC841442), AZD-1390 (NSC803789), olaparib (NSC753686), talazoparib (NSC767125), ART-558 (NSC835418), sotorasib (NSC818433), MRTX-1133 (NSC836407), SN-38 (NSC673596), topotecan (NSC609699), etoposide (NSC141540), doxorubicin (NSC123127), gemcitabine (NSC613327), 5-fluorouracil (NSC19893), paclitaxel (NSC125973), vemurafenib (NSC761431), panobinostat (NSC761190), R-306465 (JNJ-16241199; NSC773264), adavosertib (NSC754352), TP-3654 (NSC805149), carboplatin (NSC241240), KSQ-4279 (NSC840948), and staurosporine (NSC755774) were obtained from the National Cancer Institute (NCI) Developmental Therapeutics Program Chemical Repository (34). The FDA-approved anticancer drug set is available from the NCI Developmental Therapeutics Program. […] The stock solutions were prepared in dimethyl sulfoxide (DMSO, Sigma-Aldrich, St. Louis, MO, cat. D2650) at 800-fold the tested concentration and stored at -70 degrees C prior to their use. All drugs and investigational agents were tested over a range starting from a high concentration at or near the clinical Cmax and decreasing in half-log increments. If the clinical Cmax for an agent had not been determined, the highest concentration tested was 10 microM.
2.3 Cell Culture. All cells were maintained in an incubator at 37 degrees C and 5% CO2 with 95% humidity. The PDC lines were cultured according to standard operating procedures established by the NCI PDMR. All PDCs were thawed and cultured in Matrigel-coated flasks prepared with a working solution of 1X Ham's F-12 nutrient mix, without supplementation (Invitrogen, cat. 11765054), 100 U/mL penicillin-streptomycin (Invitrogen, cat. 15140122), and 2.5% Matrigel (Corning Inc., cat. 354248) for the first three passages. The 857933-349-R-J2-PDC line was cultured in 6C/Colon 1B media, which includes advanced DMEM/F-12 (Thermo Fisher Scientific, cat. 12634028), 10 mM HEPES (Thermo Fisher Scientific, cat. 15630080), 1X GlutaMAX supplement (Thermo Fisher Scientific, cat. 35050061), 0.1 mg/mL primocin (InvivoGen, cat. ant-pm-2), 10% defined fetal bovine serum, heat inactivated (HyClone Laboratories Inc., cat. SH30070.03HI), 50% L-WRN conditioned media (ATCC, cat. CRL-3276), 1.25 mM N-Acetyl-L-cysteine (Sigma-Aldrich, cat. A9165), 10 mM nicotinamide (Sigma-Aldrich, cat. N0636), 1X B-27 supplement (Thermo Fisher Scientific, cat. 17504044), 1X N-2 supplement (Thermo Fisher Scientific, cat. 17502048), 10 microM Y-27632 dihydrochloride (Tocris Bioscience, cat. 1254), and 50 ng/mL human EGF recombinant protein (Thermo Fisher Scientific, cat. PHG0311). The 485176-168-R4-J1-PDC line was cultured in Panc media, which includes all 6C/Colon 1B media components plus 100 ng/mL human FGF-10 (Thermo Fisher Scientific, cat. 100-26), 500 nM SB-431542 (Selleckchem, cat. S1067), and gastrin (Tocris, cat. 3006).
[…]
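Also: spheroids exposed to agents for 7 days before readout.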
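For viability, T/C in this document: percent viability relative to DMSO vehicle control wells taken as 100%.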

In the case of `O=C(c1cc(Cc2n[nH]c(=O)c3ccccc23)ccc1F)N1CCN(C(=O)C2CC2)CC1` + Cc1cnc(CNC(=O)c2c(=O)c3ccc(N4CCCN(C)CC4)nc3n3c2sc2ccccc23)cn1, the IC50 (second compound 0.0316 µM) is reported as greater than 10000 nM, the IC50 (second compound 0.1 µM) is reported as greater than 10000 nM and the IC50 (second compound 0.316 µM) is reported as less than 31.6 nM. It also gave an IC50 (second compound 1 µM) of less than 31.6 nM, an IC50 (second compound 3.16 µM) of less than 31.6 nM and an IC50 (second compound 10 µM) of less than 31.6 nM. It also gave a viability, T/C (second compound 0.0316 µM, first compound 0.0316 µM) of 97.3%, a viability, T/C (second compound 0.0316 µM, first compound 0.1 µM) of 103% and a viability, T/C (second compound 0.0316 µM, first compound 0.316 µM) of 107%. For the same compound, the viability, T/C (second compound 0.0316 µM, first compound 1 µM) was 87.9%, the viability, T/C (second compound 0.0316 µM, first compound 3.16 µM) was 84.3% and the viability, T/C (second compound 0.0316 µM, first compound 10 µM) was 68.7%. The viability, T/C (second compound 0.1 µM, first compound 0.0316 µM) was 68.5%, the viability, T/C (second compound 0.1 µM, first compound 0.1 µM) was 69.3% and the viability, T/C (second compound 0.1 µM, first compound 0.316 µM) was 74.4%. It also gave a viability, T/C (second compound 0.1 µM, first compound 1 µM) of 64.3%, a viability, T/C (second compound 0.1 µM, first compound 3.16 µM) of 53.9% and a viability, T/C (second compound 0.1 µM, first compound 10 µM) of 51.5%. It also gave a viability, T/C (second compound 0.316 µM, first compound 0.0316 µM) of 43.6%, a viability, T/C (second compound 0.316 µM, first compound 0.1 µM) of 39.4% and a viability, T/C (second compound 0.316 µM, first compound 0.316 µM) of 46.4%. It also gave a viability, T/C (second compound 0.316 µM, first compound 1 µM) of 52.2%, a viability, T/C (second compound 0.316 µM, first compound 3.16 µM) of 36.1% and a viability, T/C (second compound 0.316 µM, first compound 10 µM) of 35.1%. For the same compound, the viability, T/C (second compound 1 µM, first compound 0.0316 µM) was 42.8%, the viability, T/C (second compound 1 µM, first compound 0.1 µM) was 28.7% and the viability, T/C (second compound 1 µM, first compound 0.316 µM) was 30.4%. The viability, T/C (second compound 1 µM, first compound 1 µM) was 54.8%, the viability, T/C (second compound 1 µM, first compound 3.16 µM) was 38.5% and the viability, T/C (second compound 1 µM, first compound 10 µM) was 26.7%. It also gave a viability, T/C (second compound 3.16 µM, first compound 0.0316 µM) of 28.1%, a viability, T/C (second compound 3.16 µM, first compound 0.1 µM) of 26.6% and a viability, T/C (second compound 3.16 µM, first compound 0.316 µM) of 23.2%. For the same compound, the viability, T/C (second compound 3.16 µM, first compound 1 µM) was 28.7%, the viability, T/C (second compound 3.16 µM, first compound 3.16 µM) was 41.4% and the viability, T/C (second compound 3.16 µM, first compound 10 µM) was 30.3%. The viability, T/C (second compound 10 µM, first compound 0.0316 µM) was 36.6%, the viability, T/C (second compound 10 µM, first compound 0.1 µM) was 28.7% and the viability, T/C (second compound 10 µM, first compound 0.316 µM) was 25.2%. It also gave a viability, T/C (second compound 10 µM, first compound 1 µM) of 22.7%, a viability, T/C (second compound 10 µM, first compound 3.16 µM) of 44.1% and a viability, T/C (second compound 10 µM, first compound 10 µM) of 24.3%.
